Values after ≈ are worked out from the molar mass of the structure shown. One block for each compound: values may come before it.
Tests used:
Experiment in all cases: ≥ marks a high value that may be exact or a test limit, other limits are often not marked, values filed in µg/mL are converted to µM
[1] = test system: Escherichia coli ATCC 25726
[2] = test system: Staphylococcus aureus ATCC 25923
[3] = test system: Staphylococcus aureus USA 300
Escherichia coli = test system: Escherichia coli
Listeria innocua = test system: Listeria innocua
Micrococcus luteus A270 = test system: Micrococcus luteus A270
[4] = test system: Candida albicans ATCC 90028
[5] = test system: Klebsiella pneumoniae ATCC 700603
[6] = test system: Pseudomonas aeruginosa ATCC 27853
[7] = test system: Escherichia coli ATCC 25922
[8] = test system: Staphylococcus aureus NCTC 8325
[9] = test system: Escherichia coli ATCC 8739
[10] = test system: Staphylococcus aureus ATCC 43300
[11] = test system: Staphylococcus aureus ATCC 6538
Bacillus subtilis = test system: Bacillus subtilis
Pseudomonas aeruginosa = test system: Pseudomonas aeruginosa
[12] = test system: Staphylococcus epidermidis
[13] = test system: Klebsiella pneumoniae ATCC 13883
[14] = test system: Pseudomonas aeruginosa PAO1

SMILES: CC[C@H](C)[C@H](NC(=O)[C@H](C)NC(=O)[C@@H](NC(=O)[C@H](C)NC(=O)CNC(=O)[C@H](CCCCN)NC(=O)[C@@H](NC(=O)[C@H](C)NC(=O)CNC(=O)[C@H](CCCCN)NC(=O)[C@H](CC(C)C)NC(=O)[C@@H](NC(=O)[C@H](CCCCN)NC(=O)[C@H](CCCCN)NC(=O)[C@H](CC(C)C)NC(=O)[C@@H](NC(=O)[C@H](CC(=O)O)NC(=O)[C@H](CCCCN)NC(=O)[C@@H](NC(=O)[C@H](CCC(=O)O)NC(=O)[C@@H]1CCCN1C(=O)[C@H](CO)NC(=O)[C@H](CC(C)C)NC(=O)[C@H](CCCCN)NC(=O)[C@@H](N)CC(C)C)[C@@H](C)O)[C@@H](C)O)C(C)C)[C@@H](C)CC)[C@@H](C)CC)C(=O)N[C@@H](C)C(=O)N[C@@H](CO)C(=O)N[C@@H](CC(C)C)C(=O)N[C@@H](C)C(N)=O [LKLSPETKDTLKKVLKGAIKGAIAIASLA]
MIC [1]: ≥ 40 µM
MIC [2]: 5 µM (≈ 14.9 µg/mL)

SMILES: CC(C)C[C@H](NC(=O)[C@H](CC(C)C)NC(=O)[C@H](CO)NC(=O)[C@H](Cc1cnc[nH]1)NC(=O)[C@H](CO)NC(=O)[C@H](CC(C)C)NC(=O)[C@H](CC(C)C)NC(=O)[C@@H](N)CCCCN)C(=O)O [KLLSHSLL]
MIC (Escherichia coli): 68 µM (≈ 61.9 µg/mL)
MIC (Listeria innocua): ≥ 34 µM
MIC (Micrococcus luteus A270): ≥ 34 µM

SMILES: CC[C@H](C)[C@H](N)C(=O)N[C@@H](CCCCN)C(=O)N[C@H](C(=O)N1CCC[C@H]1C(=O)N[C@@H](C)C(=O)N[C@H](C(=O)N[C@H](C(=O)N[C@@H](CCCCN)C(=O)N[C@@H](CC(=O)O)C(=O)N[C@H](C(=O)N[C@@H](CC(C)C)C(=O)N[C@@H](CCCCN)C(=O)N[C@@H](CCCCN)C(=O)N[C@H](C(=O)N[C@@H](C)C(=O)N[C@@H](CCCCN)C(=O)NCC(=O)N[C@H](C(=O)N[C@@H](CC(C)C)C(=O)N[C@@H](CO)C(=O)N[C@@H](C)C(=O)N[C@H](C(=O)N[C@@H](C)C(=O)NCC(=O)N[C@@H](C)C(=O)N[C@@H](CC(C)C)C(=O)N[C@H](C(=O)N[C@@H](CCC(N)=O)C(=O)O)[C@@H](C)O)C(C)C)C(C)C)C(C)C)[C@@H](C)O)C(C)C)C(C)C)[C@@H](C)CC [IKIPAVVKDTLKKVAKGVLSAVAGALTQ]
MIC [4]: ≥ 80 µM
MIC [1]: 20 µM (≈ 56.4 µg/mL)
MIC [5]: 40 µM (≈ 113 µg/mL)
MIC [6]: 40 µM (≈ 113 µg/mL)
MIC [2]: 40 µM (≈ 113 µg/mL)

SMILES: CC[C@H](C)[C@H](NC(=O)[C@H](CCCCN)NC(=O)[C@@H](NC(=O)[C@H](CO)NC(=O)[C@H](CC(N)=O)NC(=O)[C@H](Cc1c[nH]c2ccccc12)NC(=O)[C@H](CC(C)C)NC(=O)CN)[C@@H](C)CC)C(=O)N[C@@H](C)C(=O)NCC(=O)N[C@@H](CCCCN)C(=O)N[C@@H](CCCCN)C(=O)N[C@@H](CC(C)C)C(=O)N[C@@H](Cc1ccccc1)C(=O)N[C@H](C(=O)N[C@@H](CC(N)=O)C(=O)N[C@H](C(=O)N[C@@H](CC(C)C)C(=O)N[C@@H](CC(=O)O)C(=O)N[C@@H](CCCCN)C(=O)N[C@H](C(=O)N[C@@H](CCCN=C(N)N)C(=O)N[C@H]1CSSC[C@@H](C(=O)N[C@@H](CCCCN)C(=O)N[C@H](C(=O)N[C@@H](CO)C(=O)N2CCC[C@H]2C(=O)N[C@@H](CC(=O)O)C(=O)N[C@H](C(=O)N[C@@H](CCC(=O)O)C(=O)O)C(C)C)[C@@H](C)O)NC(=O)CNC(=O)CNC(=O)[C@H](C)NC(=O)[C@H](C(C)C)NC(=O)[C@H](CCCCN)NC1=O)[C@@H](C)CC)C(C)C)C(C)C [GLWNSIKIAGKKLFVNVLDKIRCKVAGGCKTSPDVE]
MIC [9]: 6.3 µM (≈ 24.5 µg/mL)
MIC [10]: 100 µM (≈ 389 µg/mL)
MIC [11]: 6.3 µM (≈ 24.5 µg/mL)

SMILES: CC(C)C[C@H](NC(=O)[C@H](CO)NC(=O)[C@H](C)NC(=O)[C@H](Cc1cnc[nH]1)NC(=O)[C@@H](NC(=O)[C@H](C)NC(=O)[C@@H]1CCCN1C(=O)[C@@H](NC(=O)[C@H](Cc1ccccc1)NC(=O)[C@H](CC(=O)O)NC(=O)[C@H](CO)NC(=O)[C@@H]1CCCN1C(=O)[C@H](CC(C)C)NC(=O)[C@H](Cc1cnc[nH]1)NC(=O)[C@H](CO)NC(=O)[C@H](C)NC(=O)[C@H](CC(C)C)NC(=O)[C@@H](NC(=O)[C@@H](N)C(C)C)[C@@H](C)O)[C@@H](C)O)C(C)C)C(=O)N[C@@H](CC(=O)O)C(=O)N[C@@H](CCCCN)C(=O)N[C@@H](Cc1ccccc1)C(=O)O [VTLASHLPSDFTPAVHASLDKF]
MIC (Escherichia coli): 26 µM (≈ 61.2 µg/mL)
MIC (Listeria innocua): ≥ 53 µM
MIC (Micrococcus luteus A270): ≥ 53 µM

SMILES: CC[C@H](C)[C@@H]1NC(=O)[C@@H]2CCCN2C(=O)[C@H](CC(C)C)NC(=O)[C@@H]2CCCN2C(=O)[C@H]([C@@H](C)CC)NC(=O)[C@H](Cc2c[nH]c3ccccc23)NC(=O)[C@H](CO)NC(=O)[C@@H](NC(=O)[C@@H](NC(=O)[C@@H](N)CCCN=C(N)N)C(C)C)CSSC[C@@H](C(=O)N[C@@H](Cc2cnc[nH]2)C(N)=O)NC1=O [RVCSWIPLPICH]
MIC [1]: ≥ 500 µM
MIC [2]: 250 µM (≈ 355 µg/mL)

Now from value to compound:

MIC [3]: ≥ 128 µM
SMILES: CC[C@H](C)[C@H](NC(=O)[C@H](CCCN=C(N)N)NC(=O)[C@@H](NC(=O)[C@@H](NC(=O)[C@H](CCCCN)NC(=O)[C@@H](NC(=O)[C@H](CC(C)C)NC(=O)[C@@H](NC(=O)[C@@H](NC(=O)[C@H](CCCCN)NC(=O)[C@H](CCCN=C(N)N)NC(=O)[C@H](Cc1ccc(O)cc1)NC(=O)CNC(=O)[C@H](Cc1cnc[nH]1)NC(=O)[C@H](CC(N)=O)NC(=O)[C@@H](N)C(C)C)C(C)C)[C@@H](C)O)[C@@H](C)O)[C@@H](C)O)C(C)C)C(=O)N[C@@H](CCCCN)C(=O)N[C@@H](CCCCN)C(=O)N[C@@H](Cc1ccccc1)C(=O)N[C@@H](CCSC)C(=O)O [VNHGYRKVTLTKTVRIKKFM]

MIC [4]: ≥ 80 µM
MIC [1]: ≥ 64 µM
MIC [7]: 40 µM (≈ 61.7 µg/mL)
MIC [2]: 16 µM (≈ 24.7 µg/mL)
MIC [8]: 20 µM (≈ 30.9 µg/mL)
SMILES: CC[C@H](C)[C@H](NC(=O)[C@H](CCCCN)NC(=O)[C@H](CCCCN)NC(=O)[C@H](C)NC(=O)[C@H](CC(C)C)NC(=O)[C@H](CC(N)=O)NC(=O)[C@@H](NC(=O)[C@H](CC(C)C)NC(=O)[C@@H](NC(=O)CNC(=O)[C@H](CC(C)C)NC(=O)[C@H](Cc1ccccc1)NC(=O)[C@@H](N)CC(N)=O)[C@@H](C)O)C(C)C)C(=O)N[C@@H](CC(C)C)C(N)=O [NFLGTLVNLAKKIL]

MIC [4]: ≥ 50 µM
MIC [1]: 12.5 µM (≈ 24.8 µg/mL)
MIC [2]: 100 µM (≈ 199 µg/mL)
SMILES: CC[C@H](C)[C@H](NC(=O)[C@H](CCCCN)NC(=O)[C@@H](NC(=O)[C@@H](NC(=O)[C@H](CCCCN)NC(=O)CNC(=O)[C@H](CC(C)C)NC(=O)[C@@H](NC(=O)[C@H](CO)NC(=O)CNC(=O)[C@H](C)NC(=O)[C@H](CCCCN)NC(=O)[C@H](CO)NC(=O)[C@H](C)NC(=O)[C@H](CCSC)NC(=O)CN)C(C)C)[C@@H](C)CC)[C@@H](C)O)C(=O)N[C@@H](C)C(=O)N[C@@H](CC(C)C)C(=O)NCC(=O)N[C@@H](C)C(=O)N[C@@H](CC(C)C)C(N)=O [GMASKAGSVLGKITKIALGAL]

MIC (Bacillus subtilis): 30 µM (≈ 31.5 µg/mL)
MIC [9]: 30 µM (≈ 31.5 µg/mL)
MIC (Pseudomonas aeruginosa): 30 µM (≈ 31.5 µg/mL)
MIC [12]: ≥ 60 µM
SMILES: CC(C)C[C@H](NC(=O)[C@H](CCCCN)NC(=O)[C@H](Cc1c[nH]c2ccccc12)NC(=O)[C@H](C)N)C(=O)N[C@@H](Cc1ccccc1)C(=O)N[C@@H](CC(=O)O)C(=O)N[C@@H](CC(=O)O)C(=O)NCC(=O)N[C@H](C(=O)O)C(C)C [AWKLFDDGV]

MIC [7]: > 25 µM
MIC [13]: 25 µM (≈ 33.5 µg/mL)
MIC [14]: > 25 µM
MIC [3]: 6.2 µM (≈ 8.3 µg/mL)
SMILES: CC(C)C[C@H](NC(=O)[C@H](CCCCN)NC(=O)CNC(=O)[C@H](CC(C)C)NC(=O)[C@H](CC(C)C)NC(=O)[C@H](CC(C)C)NC(=O)[C@H](CO)NC(=O)[C@H](CC(C)C)NC(=O)[C@H](CC(C)C)NC(=O)[C@H](CC(C)C)NC(=O)[C@H](CO)NC(=O)[C@H](CC(C)C)NC(=O)CN)C(N)=O [GLSLLLSLLLGKL]

MIC [1]: ≥ 100 µM
MIC [7]: 50 µM (≈ 120 µg/mL)
MIC [5]: 100 µM (≈ 241 µg/mL)
MIC [6]: 200 µM (≈ 481 µg/mL)
MIC [2]: > 100 µM
SMILES: CC[C@H](C)[C@H](NC(=O)[C@H](CCC(=O)O)NC(=O)CNC(=O)[C@H](CC(C)C)NC(=O)[C@H](Cc1ccccc1)NC(=O)[C@H](C)NC(=O)[C@H](CCCCN)NC(=O)CNC(=O)[C@H](Cc1ccccc1)NC(=O)[C@H](CCCCN)NC(=O)CNC(=O)[C@H](C)NC(=O)[C@H](CO)NC(=O)[C@H](Cc1cnc[nH]1)NC(=O)[C@H](CC(C)C)NC(=O)[C@@H](NC(=O)[C@H](CCCCN)NC(=O)[C@H](CO)NC(=O)[C@@H](NC(=O)CN)C(C)C)[C@@H](C)CC)C(=O)N[C@@H](CCSC)C(=O)N[C@@H](CCCCN)C(=O)N[C@@H](CO)C(=O)O [GVSKILHSAGKFGKAFLGEIMKS]

From DBAASP
